From the OPERA property sets (Mansouri et al. 2018)

Point of comparison: `O=CCCc1ccccc1`, boiling point 224 °C. Against it:
- C=CC#CC — lower, 59.5 °C
- CCC(C)CC(O)CC (stereo not drawn) — lower, 172 °C
- FC(F)(F)c1ccc(Cl)cc1Cl — lower, 178 °C
- CCc1ccc[nH]1 — lower, 164 °C
- CCCC(C)(C)C(C)=O — lower, 149 °C
- Cc1ccc(C(C)c2ccc(C)cc2)cc1 — higher, 298 °C
- C[C@@H]1CC[C@H](O)C1 — lower, 148 °C
- O=Cc1cc(Cl)cc(Cl)c1 — higher, 240 °C
- C=C(CC(=O)OC)C(=O)OC — lower, 208 °C
- Cc1c(F)c(F)cc(F)c1F — lower, 126 °C
- C1C2C3C2C2C1C32 (stereo not drawn) — lower, 112 °C
- C=CC(N)=O — lower, 193 °C
- C=C(Br)CC — lower, 88 °C
- O=C(Cl)OCc1ccccc1 — lower, 152 °C
- Cc1cccc2c1CCCC2C (stereo not drawn) — higher, 239 °C
- CCCOCC(C)O (stereo not drawn) — lower, 150 °C
- CCOC(=O)C=C(C)C — lower, 154 °C
- CCCCOC(=O)C(Cl)Cl — lower, 194 °C
- O=Nc1ccc(Nc2ccccc2)cc1 — higher, 292 °C
- C=CC(F)(F)Br — lower, 42 °C
- SCCCCS — lower, 196 °C
- Cc1cccc(Cl)c1N — lower, 215 °C
- O=C(Cl)c1ccc(Cl)c(Cl)c1 — higher, 242 °C
- CCC=CBr — lower, 99 °C
- O=C1c2ccccc2-c2ccccc21 — higher, 342 °C
- COC(=O)CC(=O)OC — lower, 181 °C
- Fc1cccc(N=C=S)c1 — higher, 227 °C
- C=CCOc1ccccc1 — lower, 192 °C
- Clc1nc(Cl)nc(Cl)n1 — lower, 192 °C
- ClC(Cl)(Br)Br — lower, 150 °C
- CCCCCCC(=O)OCCCCC — higher, 245 °C

Point of comparison: `C[C@H]1C[C@H]2[C@@H]3CCC4=CC(=O)C=C[C@]4(C)[C@@]3(F)[C@@H](O)C[C@]2(C)[C@@]1(O)C(=O)CCl`, melting point 196 °C. Against it:
- N=C(N)NC(N)=O — lower, 105 °C
- CCC(C)CC(O)CC (stereo not drawn) — lower, -91.2 °C
- O=[N+]([O-])c1ccc(Nc2ccc(O)cc2)c([N+](=O)[O-])c1 — lower, 194 °C
- FC(F)(F)c1ccc(Cl)cc1Cl — lower, -26 °C
- CN(N=O)c1ccc(N=O)cc1 — lower, 101 °C
- Nc1nc(Cl)cc(Cl)n1 — higher, 220 °C
- COc1ccc(C(=O)Cc2c(CCN(C)C)cc3c(c2OC)OCO3)c(C(=O)O)c1OC — lower, 138 °C
- Oc1ccc(Sc2ccc(O)cc2)cc1 — lower, 155 °C
- Clc1cccc2c1Oc1c(Cl)c(Cl)c(Cl)c(Cl)c1O2 — higher, 220 °C
- O=Cc1cc(Cl)cc(Cl)c1 — lower, 65 °C
- O=P(OCC(Br)CBr)(OCC(Br)CBr)OCC(Br)CBr (stereo not drawn) — lower, 5.5 °C
- COc1ccc(C[C@H]2c3cc(OC)c(OC)cc3CCN2C)cc1O — lower, 176 °C
- C=C(CC(=O)OC)C(=O)OC — lower, 38 °C
- COc1ccc2c(=O)c3ccccc3oc2c1CN1CCCCC1 — lower, 160 °C
- CCCCCCCCCCCC(O)CC (stereo not drawn) — lower, 31.5 °C
- Clc1c(Br)c(Br)c2c(c1Br)Oc1c(Br)c(Br)c(Cl)c(Br)c1O2 — higher, 385 °C
- O=C(O)c1ccc(C(=O)O)c(C(=O)O)c1 — higher, 219 °C
- CN(C)C(CSC(N)=O)CSC(N)=O.Cl — lower, 180 °C
- C=CC(N)=O — lower, 84.5 °C
- C=C(Br)CC — lower, -133 °C
- CCCOCC(C)O (stereo not drawn) — lower, -80 °C
- CCCCCCCCCCCCCC(=O)CCCCCCCCCCCCC — lower, 77.5 °C
- Nc1ccc(C2(c3ccc(N)cc3)OC(=O)c3ccccc32)cc1 — higher, 203 °C
- COC(=O)C1(S(=O)(=O)c2ccc(Br)cc2)CCC1 — lower, 95 °C
- S=C1CCCCCN1 — lower, 108 °C
- O=Nc1ccc(Nc2ccccc2)cc1 — lower, 143 °C
- O=C1NN(c2ccccc2)C(=O)C1c1ccccc1 (stereo not drawn) — higher, 234 °C
- SCCCCS — lower, -53.9 °C
- Cc1cccc(Cl)c1N — lower, 2 °C
- O=C(O)c1cccc(O)c1 — higher, 202 °C
- O=C(Cl)c1ccc(Cl)c(Cl)c1 — lower, 25 °C
- O=C1c2ccccc2-c2ccccc21 — lower, 84 °C
- CC(=O)Nc1ccc(C)c(NS(=O)(=O)C(F)(F)F)c1 — lower, 176 °C
- COC(=O)CC(=O)OC — lower, -61.9 °C
- NC(=O)c1nc(-c2ccccc2)n(-c2ccc(Cl)c(COCC(F)(F)C(F)(F)F)c2)n1 — lower, 146 °C
- CCCOC(=O)Cn1cc(I)c(=O)c(I)c1 — lower, 186 °C
- Clc1nc(Cl)nc(Cl)n1 — lower, 154 °C
- Clc1cc2c(c(Cl)c1Cl)Oc1c(Cl)c(Cl)c(Cl)c(Cl)c1O2 — higher, 264 °C
- Oc1ccc(Br)c(O)c1 — lower, 103 °C
- CCCCCCCCCCCCCCCC(=O)NCCO — lower, 98.5 °C
- C=CC1(C)OC(=O)N(c2cc(Cl)cc(Cl)c2)C1=O (stereo not drawn) — lower, 108 °C
- N#Cc1c[nH]c2ccccc12 — lower, 180 °C
- O=C=Nc1cccc(Cl)c1 — lower, -4 °C
- ClC(Cl)(Br)Br — lower, 38 °C
- CCCCCC/C=C\CCCCCCCC(=O)O — lower, 0.2 °C
- CCOC(=O)COc1cccc2ccccc12 — lower, 56.5 °C
- CCCCCCC(=O)OCCCCC — lower, -50 °C
- O=C(CC(c1ccccc1)c1ccccc1)c1ccccc1 — lower, 96 °C

Point of comparison: `Clc1c(Br)c(Br)c2c(c1Br)Oc1c(Br)c(Br)c(Cl)c(Br)c1O2`, log10 vapour pressure (mmHg) -12.5. Against it:
- O=[N+]([O-])c1ccc(Nc2ccc(O)cc2)c([N+](=O)[O-])c1 — higher, -11.4
- FC(F)(F)c1ccc(Cl)cc1Cl — higher, 0.0449
- Clc1cccc2c1Oc1c(Cl)c(Cl)c(Cl)c(Cl)c1O2 — higher, -9.25
- C=CC(N)=O — higher, -2.15
- O=C(Cl)OCc1ccccc1 — higher, -2.51
- CCCOCC(C)O (stereo not drawn) — higher, 0.23
- CCC=CBr — higher, 1.89
- COC(=O)CC(=O)OC — higher, -0.0458
- Clc1cc2c(c(Cl)c1Cl)Oc1c(Cl)c(Cl)c(Cl)c(Cl)c1O2 — higher, -10.2
- C=CC1(C)OC(=O)N(c2cc(Cl)cc(Cl)c2)C1=O (stereo not drawn) — higher, -6.92
- O=C=Nc1cccc(Cl)c1 — higher, -0.712
- C=CC(=O)OCCOC(=O)C=C — higher, -1.18

With `O=P(OCC(Br)CBr)(OCC(Br)CBr)OCC(Br)CBr` (stereo not drawn) the ready biodegradability was “readily biodegradable”.
For `O=S(=O)(Cl)Cc1ccccc1`, the ready biodegradability was “readily biodegradable”.
With `C=CC(N)=O` the ready biodegradability was “readily biodegradable”.
With `O=Nc1ccc(Nc2ccccc2)cc1` the ready biodegradability was “not readily biodegradable”.
In the case of `O=C(O)c1cccc(O)c1`, the ready biodegradability is reported as “readily biodegradable”.
In the case of `NCC1CCC(C(=O)O)CC1` (stereo not drawn), the ready biodegradability is reported as “not readily biodegradable”.

Point of comparison: `C=CC1(C)OC(=O)N(c2cc(Cl)cc(Cl)c2)C1=O` (stereo not drawn), log10 Koc (L/kg) 2.7. Against it:
- C=CC(N)=O — lower, 1.7

In the case of `Clc1cc2c(c(Cl)c1Cl)Oc1c(Cl)c(Cl)c(Cl)c(Cl)c1O2`, the log10 Koa is reported as 11.4.
